Test results from PubChem BioAssay AID1845201 (Molecular Pharmacology Branch, DTP, NCI, 2023).

System: COR L88 complex tumor spheroid viability
Assay: Anticancer human tumor COR L88 cell line growth inhibition;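 also: compound exposure lasted 7 days before viability readout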;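 as to viability, T/C: percent of DMSO vehicle-treated spheroids = 100%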
Conditions: for IC50: curve of first compound; for viability, T/C: stronger effect = lower value
Method in brief: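 Complex tumor spheroids combined malignant cells with endothelial cells and mesenchymal stem cells. DNA-damaging drugs and DNA repair inhibitors were tested alone and in combination, at half-log dilutions down from clinical Cmax (top 10 microM if Cmax unknown), 0.25% DMSO final.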

CC(C)n1c(=O)n(C)c2cnc3cc(F)c(-c4ccc(OCCCN5CCCCC5)nc4)cc3c21 + Cn1nnc2c(C(N)=O)ncn2c1=O
IC50 (second compound 1 µM): > 10 µM
IC50 (second compound 3.16 µM): > 10 µM
IC50 (second compound 10 µM): > 10 µM
IC50 (second compound 31.6 µM): 6.87 µM
IC50 (second compound 100 µM): 5.06 µM
viability, T/C (second compound 1 µM, first compound 0.0316 µM): 104%
viability, T/C (second compound 1 µM, first compound 0.1 µM): 97.7%
viability, T/C (second compound 1 µM, first compound 0.316 µM): 98.9%
viability, T/C (second compound 1 µM, first compound 1 µM): 94.5%
viability, T/C (second compound 1 µM, first compound 3.16 µM): 80.7%
viability, T/C (second compound 1 µM, first compound 10 µM): 52.8%
viability, T/C (second compound 3.16 µM, first compound 0.0316 µM): 96.2%
viability, T/C (second compound 3.16 µM, first compound 0.1 µM): 105%
viability, T/C (second compound 3.16 µM, first compound 0.316 µM): 98.2%
viability, T/C (second compound 3.16 µM, first compound 1 µM): 95.4%
viability, T/C (second compound 3.16 µM, first compound 3.16 µM): 80%
viability, T/C (second compound 3.16 µM, first compound 10 µM): 54.6%
viability, T/C (second compound 10 µM, first compound 0.0316 µM): 96.2%
viability, T/C (second compound 10 µM, first compound 0.1 µM): 91.6%
viability, T/C (second compound 10 µM, first compound 0.316 µM): 94.5%
viability, T/C (second compound 10 µM, first compound 1 µM): 91.2%
viability, T/C (second compound 10 µM, first compound 3.16 µM): 76.1%
viability, T/C (second compound 10 µM, first compound 10 µM): 50.8%
viability, T/C (second compound 31.6 µM, first compound 0.0316 µM): 87.1%
viability, T/C (second compound 31.6 µM, first compound 0.1 µM): 84.8%
viability, T/C (second compound 31.6 µM, first compound 0.316 µM): 87.5%
viability, T/C (second compound 31.6 µM, first compound 1 µM): 80.9%
viability, T/C (second compound 31.6 µM, first compound 3.16 µM): 67.4%
viability, T/C (second compound 31.6 µM, first compound 10 µM): 41.2%
viability, T/C (second compound 100 µM, first compound 0.0316 µM): 72.5%
viability, T/C (second compound 100 µM, first compound 0.1 µM): 69%
viability, T/C (second compound 100 µM, first compound 0.316 µM): 74%
viability, T/C (second compound 100 µM, first compound 1 µM): 76%
viability, T/C (second compound 100 µM, first compound 3.16 µM): 56.9%
viability, T/C (second compound 100 µM, first compound 10 µM): 40.1%
